In PubChem BioAssay (NCI):
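Following 48 hours of exposure in 96-well plates, responses at five concentrations were used to interpolate endpoints linearly. TGI: total growth inhibition.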 Where a SMILES comes first, the peptide text is derived from it. The star is where a group is joined. Boc = CC(C)(C)OC(=O)*

Tests used:
Assay in all cases: inhibition of tumour cell growth, NCI panel, 48 h
[1] = tested on: 786-0 renal
[2] = tested on: A549 NSCLC
[3] = tested on: COLO 205 colon
[4] = tested on: EKVX NSCLC
[5] = tested on: HCC-2998 colon
[6] = tested on: HCT-15 colon
[7] = tested on: IGROV1 ovarian
[8] = tested on: MCF7 breast
[9] = tested on: MDA-MB-435
[10] = tested on: MDA-N
[11] = tested on: MOLT-4 leukemia
[12] = tested on: NCI-H226 lung
[13] = tested on: RXF 393 renal
[14] = tested on: SK-OV-3 ovarian
[15] = tested on: SNB-75 CNS
[16] = tested on: SR leukemia
[17] = tested on: BT-549 breast

Structure (SMILES) | TGI [1] [µM] | TGI [2] [µM] | TGI [3] [µM] | TGI [4] [µM] | TGI [5] [µM] | TGI [6] [µM] | TGI [7] [µM] | TGI [8] [µM] | TGI [9] [µM] | TGI [10] [µM] | TGI [11] [µM] | TGI [12] [µM] | TGI [13] [µM] | TGI [14] [µM] | TGI [15] [µM] | TGI [16] [µM] | TGI [17] [µM]
CCN(CC)CC1CCCCN1CC(=O)N1c2ccccc2C(=O)Nc2cccnc21 (configuration not stated) | > 100 | 35.4 | 64.6 | > 100 | > 100 | > 100 | > 100 | > 100 | > 100 | > 100 | 55.5 | 98.8 | > 100 | > 100 | > 100 | 58.1 | –
NC(N)=NCCCC(NC(=O)c1cccc2c(=O)c3ccccc3[nH]c12)C(=O)O (configuration not stated) | > 100 | > 100 | > 100 | > 100 | – | > 100 | > 100 | > 100 | > 100 | > 100 | > 100 | > 100 | – | > 100 | > 100 | > 100 | –
COc1ccc(CC2(O)C3CC4CCC2C4C3)cc1 (configuration not stated) | > 100 | > 100 | > 100 | > 100 | – | > 100 | > 100 | > 100 | > 100 | – | > 100 | > 100 | – | > 100 | > 100 | > 100 | > 100
CCN1CCC(C)OP1(=O)Cc1ccccc1 (configuration not stated) | > 100 | > 100 | > 100 | > 100 | > 100 | > 100 | > 100 | > 100 | > 100 | – | – | > 100 | – | > 100 | – | > 100 | > 100
c1ccc2c(c1)C1CCCCCC21N1CCOCC1 (configuration not stated) | > 100 | > 100 | > 100 | – | > 100 | > 100 | > 100 | – | – | – | > 100 | > 100 | > 100 | > 100 | > 100 | – | –
C=C(Br)CNC(=O)Nc1ccc(Cl)c(Cl)c1 | 36 | 66 | 30.6 | 78.4 | 44.7 | > 100 | 36.6 | – | 53.2 | > 100 | 73.9 | 67.4 | 40 | 77 | 51.5 | 62.9 | –
O=C(NNCC(O)COc1ccccc1)c1ccccc1 (configuration not stated) | > 100 | > 100 | > 100 | > 100 | > 100 | > 100 | > 100 | > 100 | > 100 | > 100 | > 100 | > 100 | > 100 | > 100 | > 100 | – | –
CCn1c2ccccc2c2ccc3c(c21)C(=O)C=CC3=O | 3.3 | > 100 | 24.1 | 30 | 38.5 | 25.7 | 14.8 | – | – | – | 17.2 | 32.8 | – | 34 | 63.3 | – | –
CC(C)(C)OC(=O)NC(Cc1ccc(O)cc1)C(=O)N1CCCC1C(=O)O (stereo not drawn) (Boc-Tyr-Pro-OH; configuration not given here) | > 100 | > 100 | > 100 | > 100 | > 100 | > 100 | > 100 | – | – | – | > 100 | > 100 | > 100 | > 100 | > 100 | > 100 | –
CN(C)c1ccc(NN=C2SC(=Nc3ccccc3)C(=Nc3ccccc3)S2)cc1 | > 100 | > 100 | > 100 | > 100 | > 100 | > 100 | > 100 | – | > 100 | > 100 | > 100 | > 100 | > 100 | > 100 | > 100 | – | –
O=C(CCCN1CCC2(CC1)CC(c1ccccc1)OC2=O)c1ccc(F)cc1 (configuration not stated) | 67.5 | > 100 | 35.4 | > 100 | 73.2 | > 100 | > 100 | > 100 | > 100 | > 100 | 62.1 | > 100 | > 100 | > 100 | 54.2 | 40.1 | –
COc1cccc(OC)c1C(=O)OCc1ccccc1 | > 100 | > 100 | > 100 | > 100 | – | > 100 | > 100 | – | – | – | > 100 | > 100 | > 100 | > 100 | > 100 | > 100 | –
CC(=O)C(CN(CC(C)C)CC(C)C)C(c1ccccc1)c1c(O)c2ccccc2oc1=O (configuration not stated) | > 100 | > 100 | > 100 | > 100 | > 100 | > 100 | > 100 | – | – | – | > 100 | > 100 | > 100 | > 100 | > 100 | – | –
O=S1(=O)OCCOS(=O)(=O)C1(F)Br | > 100 | > 100 | > 100 | > 100 | > 100 | > 100 | – | > 100 | > 100 | > 100 | > 100 | > 100 | > 100 | > 100 | > 100 | > 100 | –
CC(=O)CN(Cc1cc(C)c2c(c1)c1ccccc1n2Cc1ccccc1)S(=O)(=O)c1ccc(C)cc1 | > 100 | > 100 | > 100 | > 100 | > 100 | – | > 100 | – | – | – | > 100 | > 100 | – | > 100 | > 100 | > 100 | –
CCCCCCCOc1ccc(/C=C\c2cc[n+](CCCCCCCC[n+]3ccc(/C=C\c4ccc(OCCCCCCC)cc4)cc3)cc2)cc1 | 32 | 41.5 | 58.7 | > 100 | – | 34.1 | 33.3 | – | – | – | 62.2 | – | > 100 | 57.8 | > 100 | – | –
